Reference: patent US11319347B2, “Peptide compound and method for producing same, composition for screening use, and method for selecting peptide compound” (FUJIFILM Corporation, priority 2017, dated 2022)
Starred links: 1 amine or outer side, 2 acyl side, 3 side chain; linkers in the order of their positions; H or OH if unused. Positions of bridges follow the written chain, without caps; N, C: chain ends. Non-standard residues stand in square brackets, D forms with d. Residues, ends and D or L forms follow the SMILES beside them. ξ: configuration not given here. 2Pal(6-thiazolin-2-yl-4R-CO) = O=C([C@H](Cc1cccc(C2=N[C@H](C(=O)[*:3])CS2)n1)N[*:1])[*:2]; Phe(3-(4R-CO-2-thiazolinyl)) = O=C([C@H](Cc1cccc(C2=N[C@H](C(=O)[*:3])CS2)c1)N[*:1])[*:2]; dCha = N[C@H](CC1CCCCC1)C(=O)O; ξL = CC(C)CC(N)C(=O)O

Legend:
[1] = Metabolic stability of cyclic peptides in human liver microsomes (HLM residual rate); format: in vitro ADME; conditions: 1 μmol/L, human liver microsomes 0.5 mg protein/mL, 37° C., 20 minutes, NADPH and UDPGA
Method: Test of metabolic stability of cyclic peptide in human liver microsome
An experiment using human liver microsomes (HLMs) was carried out in order to compare and examine the metabolic stability of the synthesized cyclic peptides.
The compound with a final concentration of 1 μmol/L was incubated in human liver microsomes (BD Cat #452117) prepared to a final concentration of 0.5 mg protein/mL using 100 mmol/L phosphate buffer (pH 7.4) at 37° C. for 20 minutes in the presence of reduced nicotinamide adenine dinucleotide phosphate (NADPH) and uridine 5′-diphosphate-α-D-glucuronic acid (UDPGA). Deproteinization treatment with acetonitrile was carried out, the amount of unaltered substance remaining was quantified using LC/MS/MS, and the residual rate (%) in 20 minutes was calculated. The HLM residual rate (%) obtained by this method is described in the following table.
(§1) Evaluation standards are as follows.

[2] = Membrane permeability of synthesized cyclic peptides by PAMPA (Measurement Method A: 1 μmol/L; Method B: 10 μmol/L); format: in vitro ADME; conditions: 25° C., 4 hours
Method: Evaluation of membrane permeability of synthesized cyclic peptide by PAMPA method In order to compare and examine the membrane permeability of the synthesized cyclic peptide, parallel artificial membrane permeability assay (PAMPA) was carried out.
An artificial phospholipid membrane was produced by adding 5 μL of a phospholipid organic solvent solution consisting of L-α-phosphatidylcholine (Avanti Polar Lipids, Inc., Cat. 840051P, 1.67%), 1,2-dioleoyl-sn-glycero-3-phospho-L-serine (Avanti Polar Lipids, Inc., Cat. 840035P, 0.33%), and n-dodecane special grade (Wako Pure Chemical Industries, Ltd., 047-21612)/1-octanol reagent special grade (Kanto Chemical Co., Inc., Cat. 31013-08)=10:1 to Filter Plate (Merck Millipore Corporation, Cat. MAIPN4550).
475 μL of 50 mmol/L potassium phosphate buffer (KPB, pH 7.4 or pH 6.5) was added to 25 μL of a DMSO solution containing the compound at a concentration of 20 μmol/L, so that the compound was diluted to a final concentration of 1 μmol/L. 300 μL of the compound solution was added to the lower side (donor side) of PAMPA 96-well plate (Filter Plate (Merck Millipore Corporation, Cat. MAIPN4550)) with an artificial phospholipid membrane being interposed therebetween. 200 μL of 5% DMSO KPB (pH 7.4) was added to the upper side (acceptor side) with the artificial phospholipid membrane being interposed therebetween. A permeation test through an artificial phospholipid membrane was carried out at 25° C. for 4 hours. The compound concentration in the solution in the donor plate and the acceptor plate was measured by LC/MS/MS, and the membrane permeation rate (Pe) of the compound was calculated from the following formula, assuming that C0 is an initial compound concentration in donor solution, t is a test time, A is a membrane filter area=0.3 cm^2, VD is a donor solution amount=300 μL, VA is an acceptor solution amount=200 μL, and CD(t) is a compound concentration in donor solution at time t, CA(t) is a compound concentration in acceptor solution at time t, and Cequilibrium=[CD(t)*VD+CA(t)*VA]/(VD+VA).
475 μL of 50 mmol/L potassium phosphate buffer (KPB, pH 7.4 or pH 6.5) was added to 25 μL of a DMSO solution containing the compound at a concentration of […], so that the compound was diluted to a final concentration of 10 μmol/L. The compound solution was added 300 μL each to the lower side (donor side) of an artificial phospholipid membrane of PAMPA 96-well plate (Filter Plate (Merck Millipore Corporation, Cat. MAIPN4550)). 200 μL of 5% DMSO KPB (pH 7.4) was added to the upper side (acceptor side) with the artificial phospholipid membrane being interposed therebetween. A permeation test through an artificial phospholipid membrane was carried out at 25° C. for 4 hours. The compound concentration in the solution in the donor plate and the acceptor plate was measured by LC/MS/MS, and the membrane permeation rate (Pe) of the compound was calculated from the following formula, assuming that Co is an initial compound concentration in donor solution, t is a test time, A is a membrane filter area=0.3 cm^2, VD is a donor solution amount=300 μL, VA is an acceptor solution amount=200 μL, and CD(t) is a compound concentration in donor solution at time t, CA(t) is a compound concentration in acceptor solution at time t, and Cequilibrium=[CD(t)*VD+CA(t)*VA]/(VD+VA).
The membrane permeability (Pe(10^−6 cm/s)) obtained by this method is described in the following table.
as §1

[3] = Measurement method B (10 μmol/L)

Pe(10^−6 cm/sec) ([2]; Measurement method A)	Compound	other results
	N=C(N)NCCC[C@@H]1NC(=O)[C@H](Cc2c[nH]c3ccccc23)NC(=O)[C@@H](CC2CCCCC2)NC(=O)[C@@H]2CCCN2C(=O)[C@@H]2CSC(=N2)c2cc(ccn2)C[C@@H](C(N)=O)NC1=O [2-8]	HLM residual rate [1]: +++ (60%<HLM residual rate (%))
	N=C(N)NCCC[C@@H]1NC(=O)[C@H](Cc2c[nH]c3ccccc23)NC(=O)[C@@H](CC2CCCCC2)NC(=O)[C@@H]2CCCN2C(=O)[C@@H]2CSC(=N2)c2cccc(n2)C[C@@H](C(N)=O)NC1=O [2-9] (P[dCha]WR[2Pal(6-thiazolin-2-yl-4R-CO)]-NH2; lactam N-5)	HLM residual rate [1]: +++ (60%<HLM residual rate (%))
	N=C(N)NCCC[C@@H]1NC(=O)[C@H](Cc2c[nH]c3ccccc23)NC(=O)[C@@H](CC2CCCCC2)NC(=O)[C@@H]2CCCN2C(=O)[C@@H]2CSC(=N2)c2cnc(cn2)C[C@@H](C(N)=O)NC1=O [2-13]	HLM residual rate [1]: +++ (60%<HLM residual rate (%))
	N=C(N)NCCC[C@@H]1NC(=O)[C@H](Cc2c[nH]c3ccccc23)NC(=O)[C@@H](CC2CCCCC2)NC(=O)[C@@H]2CCCN2C(=O)[C@@H]2CSC(=N2)c2cncc(n2)C[C@@H](C(N)=O)NC1=O [2-14]	HLM residual rate [1]: +++ (60%<HLM residual rate (%))
+++ (0.5<Pe (10^−6 cm/s))	C[C@@]12CSC(=N1)c1cc(cs1)C[C@@H](C(N)=O)NC(=O)[C@H](CCCNC(=N)N)NC(=O)[C@H](Cc1c[nH]c3ccccc13)NC(=O)[C@@H](CC1CCCCC1)NC(=O)C1CCCN1C2=O (stereo partly shown) [a-1-1]	
++ (0.2<Pe (10^−6 cm/s)≤0.5)	N=C(N)NCCC[C@@H]1NC(=O)[C@H](Cc2c[nH]c3ccccc23)NC(=O)[C@@H](CC2CCCCC2)NC(=O)[C@@H]2CCCN2C(=O)[C@@H]2CSC(=N2)c2cn(nn2)C[C@@H](C(N)=O)NC1=O [a-1-2]	
+++ (0.5<Pe (10^−6 cm/s))	Cn1nc2c3cc(ccc31)C[C@@H](C(N)=O)NC(=O)[C@H](CCCNC(=N)N)NC(=O)[C@H](Cc1c[nH]c3ccccc13)NC(=O)[C@@H](CC1CCCCC1)NC(=O)[C@@H]1CCCN1C(=O)[C@@H]1CSC2=N1 [a-1-3]	
+++ (0.5<Pe (10^−6 cm/s))	Cn1ccc2cc3c(nc21)C1=N[C@@H](CS1)C(=O)N1CCC[C@H]1C(=O)N[C@H](CC1CCCCC1)C(=O)N[C@@H](Cc1c[nH]c2ccccc12)C(=O)N[C@@H](CCCNC(=N)N)C(=O)N[C@H](C(N)=O)C3 [a-1-4]	
	N=C(N)NCCC[C@@H]1NC(=O)[C@H](Cc2c[nH]c3ccccc23)NC(=O)[C@@H](CC2CCCCC2)NC(=O)[C@@H]2CCCN2C(=O)[C@@H]2CSC(=N2)c2cn(cn2)-c2ccc(cc2)C[C@@H](C(N)=O)NC1=O [a-1-5]	Pe(10^−6 cm/sec) [2, 3]: ++ (0.2<Pe (10^−6 cm/s)≤0.5)
+++ (0.5<Pe (10^−6 cm/s))	N=C(N)NCCC[C@@H]1NC(=O)[C@H](Cc2c[nH]c3ccccc23)NC(=O)[C@@H](CC2CCCCC2)NC(=O)[C@@H]2CCCN2C(=O)[C@@H]2CSC(=N2)c2cc(on2)C[C@@H](C(N)=O)NC1=O [a-1-6]	
+++ (0.5<Pe (10^−6 cm/s))	N=C(N)NCCC[C@@H]1NC(=O)[C@H](Cc2c[nH]c3ccccc23)NC(=O)[C@@H](CC2CCCCC2)NC(=O)[C@@H]2CCCN2C(=O)[C@@H]2CSC(=N2)c2ccc(cn2)OCCOCCOCCOCCOc2ccc(cc2)C[C@@H](C(N)=O)NC1=O [a-1-8]	
+++ (0.5<Pe (10^−6 cm/s))	N=C(N)NCCC[C@@H]1NC(=O)[C@H](Cc2c[nH]c3ccccc23)NC(=O)[C@@H](CC2CCCCC2)NC(=O)[C@@H]2CCCN2C(=O)[C@@H]2CSC(=N2)c2ccc(s2)C(=O)NCCOCCOCCOCCOc2ccc(cc2)C[C@@H](C(N)=O)NC1=O [a-1-9]	
+++ (0.5<Pe (10^−6 cm/s))	N=C(N)NCCC[C@@H]1NC(=O)[C@H](Cc2c[nH]c3ccccc23)NC(=O)[C@@H](CC2CCCCC2)NC(=O)[C@@H]2CCCN2C(=O)[C@@H]2CSC(=N2)c2coc(n2)-c2csc(n2)C[C@@H](C(N)=O)NC1=O [a-1-10]	
+++ (0.5<Pe (10^−6 cm/s))	N=C(N)NCCC[C@@H]1NC(=O)[C@H](Cc2c[nH]c3ccccc23)NC(=O)[C@@H](CC2CCCCC2)NC(=O)[C@@H]2CCCN2C(=O)[C@@H]2CSC(=N2)c2csc(n2)-c2csc(n2)C[C@@H](C(N)=O)NC1=O [a-1-11]	
+++ (0.5<Pe (10^−6 cm/s))	N=C(N)NCCC[C@@H]1NC(=O)[C@H](Cc2c[nH]c3ccccc23)NC(=O)[C@@H](CC2CCCCC2)NC(=O)[C@@H]2CCCN2C(=O)[C@@H]2CSC(=N2)c2cn3c(cccc3n2)C[C@@H](C(N)=O)NC1=O [a-1-12]	
	N=C(N)NCCC[C@@H]1NC(=O)[C@H](Cc2c[nH]c3ccccc23)NC(=O)[C@@H](CC2CCCCC2)NC(=O)[C@@H]2CCCN2C(=O)[C@@H]2CSC(=N2)c2cn3cc(ncc3n2)-c2cccc(c2)C[C@@H](C(N)=O)NC1=O [a-1-14]	Pe(10^−6 cm/sec) [2, 3]: +++ (0.5<Pe (10^−6 cm/s))
	N=C(N)NCCC[C@@H]1NC(=O)[C@H](Cc2c[nH]c3ccccc23)NC(=O)[C@@H](CC2CCCCC2)NC(=O)[C@@H]2CCCN2C(=O)[C@@H]2CSC(=N2)c2cn3nc(ccc3n2)-c2cccc(c2)C[C@@H](C(N)=O)NC1=O [a-1-15]	Pe(10^−6 cm/sec) [2, 3]: ++ (0.2<Pe (10^−6 cm/s)≤0.5)
	N=C(N)NCCC[C@@H]1NC(=O)[C@H](Cc2c[nH]c3ccccc23)NC(=O)[C@@H](CC2CCCCC2)NC(=O)[C@@H]2CCCN2C(=O)[C@@H]2CSC(=N2)c2cn3cc(cnc3n2)-c2cccc(c2)C[C@@H](C(N)=O)NC1=O [a-1-16]	Pe(10^−6 cm/sec) [2, 3]: ++ (0.2<Pe (10^−6 cm/s)≤0.5)
+++ (0.5<Pe (10^−6 cm/s))	N=C(N)NCCC[C@@H]1NC(=O)[C@H](Cc2c[nH]c3ccccc23)NC(=O)[C@@H](CC2CCCCC2)NC(=O)[C@@H]2CCCN2C(=O)[C@@H]2CSC(=N2)c2ccc(cc2)[C@@H](C(N)=O)NC1=O [a-1-19]	
	CC(C)C[C@@H]1NC(=O)[C@@H]2CSC(=N2)c2cccc(c2)C[C@@H](C(N)=O)NC(=O)[C@H](CC(C)C)NC(=O)[C@H](C)NC(=O)[C@H](Cc2ccccc2)NC(=O)[C@H](C)NC(=O)[C@@H]2CCCN2C(=O)[C@H](C)NC(=O)[C@H](CC(C)C)NC(=O)[C@H](CC(C)C)NC(=O)[C@@H]2CCCN2C(=O)[C@H](CC(C)C)NC(=O)[C@H](CCCNC(=N)N)NC(=O)[C@H](CC(C)C)NC1=O [a-3-1] (LLRLPLLAPAFAL[Phe(3-(4R-CO-2-thiazolinyl))]-NH2; lactam N-14)	Pe(10^−6 cm/sec) [2, 3]: +++ (0.5<Pe (10^−6 cm/s))
++ (0.2<Pe (10^−6 cm/s)≤0.5)	CC(C)C[C@@H]1NC(=O)[C@@H]2CSC(=N2)c2cccc(c2)C[C@@H](C(=O)N[C@@H](C)C(=O)N[C@@H](CC(C)C)C(=O)N[C@@H](Cc2ccccc2)C(=O)N[C@@H](CC(C)C)C(=O)N[C@@H](C)C(N)=O)NC(=O)[C@@H]2CCCN2C(=O)[C@H](CCCCN)NC1=O [a-3-2] (LKP[Phe(3-(4R-CO-2-thiazolinyl))]ALFLA-NH2; lactam N-4)	
	CC(=O)N[C@H]1CCCCNC(=O)[C@@H]2CSC(=N2)c2cccc(c2)C[C@@H](C(N)=O)NC(=O)[C@H](C)NC(=O)C(CC(C)C)NC(=O)[C@H](CCCCN)NC(=O)[C@H](CC(C)C)NC(=O)[C@H](C)NC(=O)[C@H](CC(C)C)NC1=O (stereo partly drawn) [a-4-1] (Ac-KLALK[ξL]A[Phe(3-(4R-CO-2-thiazolinyl))]-NH2; lactam 1-8)	Pe(10^−6 cm/sec) [2, 3]: + (0.01<Pe (10^−6 cm/s)≤0.2)
